Drawing on patent publication US11878970B2, “Allosteric chromenone inhibitors of phosphoinositide 3-kinase (PI3K) for the treatment of disease” (Petra Pharma Corporation, priority 2021, dated 2024), this text covers IC50 for 20 compounds.

The target of assay [1] is T1, PI3K-α (PIK3CA) wild-type (WT), p110α/p85α complex (Homo sapiens, UniProt P42336).
T1 construct: Recombinant, catalytically active human full length PIK3KA Wild-type and H1047R mutant; 6×His (N); purchased EMD Millipore Sigma 14-602M
The assay can be described thus: PI3K-alpha kinase (PIK3CA) biochemical activity, ADP-Glo, wild-type. Particulars: Soy PI lipid substrate. The method, boiled down:
(§1)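 ADP formation measured by ADP-Glo luminescence after reaction at 27 °C to about 10% ATP turnover, using 20 uM ATP, 50 uM PIP2diC8 or soy PI lipid, HEPES pH 7.4 with MgCl2. Enzyme (1-5 nM WT or H1047R p110α/p85α) and compound preincubated 1 h first; 10-point 1:3 curves fitted four-parameter for IC50.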
In general terms: In ADP-Glo the light output rises with the ADP produced.

In assay [2] the target is T2, PI3K-α (PIK3CA) H1047R mutant, p110α/p85α complex (Homo sapiens, UniProt P42336, H1047R).
T2 construct: Recombinant, catalytically active human full length PIK3KA Wild-type and H1047R mutant; 6×His (N); purchased EMD Millipore Sigma 14-792M
The assay can be described thus: PI3K-alpha kinase (PIK3CA) biochemical activity, ADP-Glo, H1047R mutant. The conditions noted are these: Soy PI lipid substrate. The method, boiled down:
as §1

T2 sequence (P42336 whole entry H1047R): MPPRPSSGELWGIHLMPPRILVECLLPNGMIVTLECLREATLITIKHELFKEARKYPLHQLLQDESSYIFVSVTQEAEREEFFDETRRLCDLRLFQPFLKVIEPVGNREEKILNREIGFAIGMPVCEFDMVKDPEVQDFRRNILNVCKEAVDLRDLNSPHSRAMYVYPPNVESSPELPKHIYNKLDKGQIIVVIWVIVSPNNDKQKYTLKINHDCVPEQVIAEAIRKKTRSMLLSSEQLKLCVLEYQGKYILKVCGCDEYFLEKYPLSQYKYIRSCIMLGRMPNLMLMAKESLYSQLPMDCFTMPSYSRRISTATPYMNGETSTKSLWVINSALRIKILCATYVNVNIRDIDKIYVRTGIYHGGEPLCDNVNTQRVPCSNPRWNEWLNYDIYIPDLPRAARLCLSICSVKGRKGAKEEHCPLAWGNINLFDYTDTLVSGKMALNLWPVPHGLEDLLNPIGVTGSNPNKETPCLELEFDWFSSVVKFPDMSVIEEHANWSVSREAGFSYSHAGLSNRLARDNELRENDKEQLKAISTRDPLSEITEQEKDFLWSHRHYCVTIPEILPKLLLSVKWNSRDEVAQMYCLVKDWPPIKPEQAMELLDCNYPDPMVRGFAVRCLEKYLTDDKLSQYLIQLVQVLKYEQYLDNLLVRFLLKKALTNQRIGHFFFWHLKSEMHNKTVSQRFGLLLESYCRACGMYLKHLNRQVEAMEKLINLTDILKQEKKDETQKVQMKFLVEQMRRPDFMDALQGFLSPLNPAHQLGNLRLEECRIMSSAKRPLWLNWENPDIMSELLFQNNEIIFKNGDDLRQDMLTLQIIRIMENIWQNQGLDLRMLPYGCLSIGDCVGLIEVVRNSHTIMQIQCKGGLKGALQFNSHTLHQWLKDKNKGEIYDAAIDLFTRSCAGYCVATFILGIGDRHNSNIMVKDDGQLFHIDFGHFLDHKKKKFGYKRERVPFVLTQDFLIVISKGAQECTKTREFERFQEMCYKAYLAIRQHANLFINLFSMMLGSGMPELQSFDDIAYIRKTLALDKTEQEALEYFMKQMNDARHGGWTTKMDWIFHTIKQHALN
T2 sequence (P27986 whole entry partner): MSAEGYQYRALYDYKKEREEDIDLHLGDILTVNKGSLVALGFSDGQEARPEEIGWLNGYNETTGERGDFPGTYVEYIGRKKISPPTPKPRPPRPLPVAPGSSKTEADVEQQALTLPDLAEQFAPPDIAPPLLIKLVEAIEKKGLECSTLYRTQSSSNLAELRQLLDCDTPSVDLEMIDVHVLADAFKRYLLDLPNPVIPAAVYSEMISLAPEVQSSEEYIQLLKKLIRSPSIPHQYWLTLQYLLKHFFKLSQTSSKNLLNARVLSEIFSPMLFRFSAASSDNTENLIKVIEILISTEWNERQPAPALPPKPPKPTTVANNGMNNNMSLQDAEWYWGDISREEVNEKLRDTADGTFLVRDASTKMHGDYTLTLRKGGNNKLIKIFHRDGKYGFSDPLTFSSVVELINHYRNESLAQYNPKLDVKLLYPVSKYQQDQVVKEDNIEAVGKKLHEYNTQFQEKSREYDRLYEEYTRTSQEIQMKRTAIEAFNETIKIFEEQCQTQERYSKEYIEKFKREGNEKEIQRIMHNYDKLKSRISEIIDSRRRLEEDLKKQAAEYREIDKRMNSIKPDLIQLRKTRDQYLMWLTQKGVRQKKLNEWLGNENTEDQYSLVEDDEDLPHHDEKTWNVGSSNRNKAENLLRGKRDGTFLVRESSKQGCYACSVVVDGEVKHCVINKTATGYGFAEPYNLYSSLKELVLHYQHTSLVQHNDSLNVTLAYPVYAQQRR

One may read the IC50 as the midpoint of a concentration-inhibition curve. The low end stands for higher potency, the high end for lower potency. Regarding `Cc1cc(C(C)Nc2ccccc2C(=O)O)c2oc(-c3ccc4nc(C)cn4n3)cc(=O)c2c1` (single isomer, unassigned) [Example 69, 2-[1-[6-Methyl-2-(2-methylimidazo[1,2-b]pyridazin-6-yl)-4-oxo-chromen-8-yl]ethylamino]benzoic acid], the IC50 was 1000 to 5000 nM in assay [1] and less than 500 nM in assay [2].
For the compound `Cc1cc(C(C)Nc2ccccc2C(=O)O)c2oc(-c3nn(C)c4ccccc34)c(C)c(=O)c2c1` (single isomer, unassigned) [Example 146, 2-[1-[3,6-Dimethyl-2-(1-methylindazol-3-yl)-4-oxo-chromen-8-yl]ethylamino]benzoic acid], the IC50 is 500 to 1000 nM in assay [1] and less than 500 nM in assay [2].
On the same counts, the results for `Cc1cc(C(C)Nc2ccccc2C(=O)O)c2oc(-c3cnn4cccnc34)cc(=O)c2c1` (stereo not shown) [Example 6, 2-[1-(6-Methyl-4-oxo-2-pyrazolo[1,5-a]pyrimidin-3-yl-chromen-8-yl)ethylamino]benzoic acid] are 1000 to 5000 nM and less than 500 nM.
`Cc1cc(C(C)Nc2ccccc2C(=O)O)c2oc(-n3nnc4ccccc43)cc(=O)c2c1` (single isomer, unassigned) [Example 85, 2-[1-[2-(Benzotriazol-1-yl)-6-methyl-4-oxo-chromen-8-yl]ethylamino]benzoic acid]: the IC50 is 1000 to 5000 nM in assay [1] and less than 500 nM in assay [2].
The like results for `Cc1cc(C(C)Nc2ccccc2C(=O)O)c2oc(-c3ccc4nccn4c3)cc(=O)c2c1` (single isomer, unassigned) [Example 73, 2-[1-(2-Imidazo[1,2-a]pyridin-6-yl-6-methyl-4-oxo-chromen-8-yl)ethylamino]benzoic acid] were, in that order, 1000 to 5000 nM and less than 500 nM.
As for `Cc1cc(C(C)Nc2ccccc2C(=O)O)c2oc(-c3ccc4c(c3)c(C)nn4C)cc(=O)c2c1` (single isomer, unassigned) [Example 165, 2-[1-[2-(1,3-Dimethylindazol-5-yl)-6-methyl-4-oxo-chromen-8-yl]ethylamino]benzoic acid], the IC50 in assay [1] and in assay [2] was less than 500 nM in each case.
`Cc1cc(C(C)Nc2ccccc2C(=O)O)c2oc(-c3ccc4nc(C)cn4c3)cc(=O)c2c1` (stereo not shown) [Example 16, 2-[1-[6-Methyl-2-(2-methylimidazo[1,2-a]pyridin-6-yl)-4-oxo-chromen-8-yl]ethylamino]benzoic acid]: the IC50 in assay [1] is 1000 to 5000 nM; in assay [2] it was less than 500 nM.
On the same counts, the results for `Cc1cc(C(C)Nc2ccccc2C(=O)O)c2oc(-c3ccc4c(c3)CN(C)C4=O)cc(=O)c2c1` (single isomer, unassigned) [Example 31, 2-[1-[6-Methyl-2-(2-methyl-1-oxo-isoindolin-5-yl)-4-oxo-chromen-8-yl]ethylamino]benzoic acid] are 1000 to 5000 nM and less than 500 nM.
On the same counts, the results for `CC(Nc1ccc(Cl)nc1C(=O)O)c1cc(C(F)(F)F)cc2c(=O)cc(-c3cc(Cl)c4nn(C)cc4c3)oc12` (single isomer, unassigned) [Example 194, 6-Chloro-3-[1-[2-(7-chloro-2-methyl-indazol-5-yl)-4-oxo-6-(trifluoromethyl)chromen-8-yl]ethylamino]pyridine-2-carboxylic acid] are 500 to 1000 nM and 500 to 1000 nM.
`Cc1cn2nc(-c3cc(=O)c4cc(C(F)(F)F)cc(C(C)Nc5ccc(Cl)nc5C(=O)O)c4o3)ccc2n1` (single isomer, unassigned) [Example 102, 6-Chloro-3-[1-[2-(2-methylimidazo[1,2-b]pyridazin-6-yl)-4-oxo-6-(trifluoromethyl)chromen-8-yl]ethylamino]pyridine-2-carboxylic acid]: the results for the IC50 in assay [1] and in assay [2] were 1000 to 5000 nM and less than 500 nM, respectively.
With `Cc1cc(C(C)Nc2ccccc2C(=O)O)c2oc(-c3cc4ccncc4o3)cc(=O)c2c1` (stereo not shown) [Example 152, 2-[1-(2-Furo[2,3-c]pyridin-2-yl-6-methyl-4-oxo-chromen-8-yl)ethylamino]benzoic acid], the IC50 is 1000 to 5000 nM in assay [1] and less than 500 nM in assay [2].
As for `Cc1cc(C(C)Nc2ccccc2C(=O)O)c2oc(-c3cccc4c3OCO4)c(C)c(=O)c2c1` (single isomer, unassigned) [Example 92, 2-[1-[2-(1,3-Benzodioxol-4-yl)-3,6-dimethyl-4-oxo-chromen-8-yl]ethylamino]benzoic acid], the concentration for half-maximal inhibition (IC50) in assay [1] is 1000 to 5000 nM; in assay [2], less than 500 nM.
For the compound `Cc1cc(C(C)Nc2ccccc2C(=O)O)c2oc(-n3ncc4ncccc43)cc(=O)c2c1` (single isomer, unassigned) [Example 48, 2-[1-(6-Methyl-4-oxo-2-pyrazolo[4,3-b]pyridin-1-yl-chromen-8-yl)ethylamino]benzoic acid], the IC50 in assay [1] and in assay [2] was less than 500 nM throughout.
With `Cc1cc(C(C)Nc2ccccc2C(=O)O)c2oc(-c3cnc4nn(C)cc4c3)cc(=O)c2c1` (single isomer, unassigned) [Example 41, 2-[1-[6-Methyl-2-(2-methylpyrazolo[3,4-b]pyridin-5-yl)-4-oxo-chromen-8-yl]ethylamino]benzoic acid], the IC50 in assay [1] lay in the range of 5000 to 10000 nM; in assay [2] it was 1000 to 5000 nM.
For `Cc1cc(C(C)Nc2ccc(F)c(F)c2C(=O)O)c2oc(-c3ccc4nc(C)cn4n3)cc(=O)c2c1` (stereo not shown) [Example 94, 2,3-Difluoro-6-[1-[6-methyl-2-(2-methylimidazo[1,2-b]pyridazin-6-yl)-4-oxo-chromen-8-yl]ethylamino]benzoic acid], the values for the IC50 in assay [1] and in assay [2] were greater than 10000 nM and 1000 to 5000 nM, respectively.
As for `Cc1cc(C(C)Nc2ccc(Cl)nc2C(=O)O)c2oc(-c3nn(C)c4ccccc34)cc(=O)c2c1` (single isomer, unassigned) [Example 177, 6-Chloro-3-[1-[6-methyl-2-(1-methylindazol-3-yl)-4-oxo-chromen-8-yl]ethylamino]pyridine-2-carboxylic acid], the IC50 in assay [1] and in assay [2] was less than 500 nM in each case.
As for `Cc1cc(C(C)Nc2ccccc2C(=O)O)c2oc(-c3cnc4sc(C)nc4c3)cc(=O)c2c1` (single isomer, unassigned) [Example 81, 2-[1-[6-Methyl-2-(2-methylthiazolo[5,4-b]pyridin-6-yl)-4-oxo-chromen-8-yl]ethylamino]benzoic acid], the results for the IC50 in assay [1] and in assay [2] were 1000 to 5000 nM and less than 500 nM, respectively.
In the case of `Cc1cc(C(C)Nc2ccc(C)nc2C(=O)O)c2oc(-c3cc4ccccc4[nH]3)cc(=O)c2c1` (stereo not shown) [Example 99, 3-[1-[2-(1H-Indol-2-yl)-6-methyl-4-oxo-chromen-8-yl]ethylamino]-6-methyl-pyridine-2-carboxylic acid], the IC50 in assay [1] and in assay [2] was 1000 to 5000 nM throughout.
As to `Cc1cc(C(C)Nc2ccccc2C(=O)O)c2oc(-c3cn4ccccc4n3)cc(=O)c2c1` (single isomer, unassigned) [Example 66, 2-[1-(2-Imidazo[1,2-a]pyridin-2-yl-6-methyl-4-oxo-chromen-8-yl)ethylamino]benzoic acid], the values for the IC50 in assay [1] and in assay [2] were 5000 to 10000 nM and 1000 to 5000 nM, respectively.
On the same counts, the results for `Cc1cc(C(C)Nc2ccc(C)nc2C(=O)O)c2oc(-c3ccc4nn(C)cc4c3)c(C)c(=O)c2c1` (single isomer, unassigned) [Example 175, 3-[1-[3,6-Dimethyl-2-(2-methylindazol-5-yl)-4-oxo-chromen-8-yl]ethylamino]-6-methyl-pyridine-2-carboxylic acid] are 500 to 1000 nM and less than 500 nM.
